# Measured values: patent US20240368177A1, “5-AMINO-6,8-DIHYDRO-1H-FURO[3,4-d]PYRROLO[3,2-b]PYRIDINE-2-CARBOXAMIDE DERIVATIVES AS MTA-COOPERATIVE INHIBITORS OF PRMT5” (BeiGene Switzerland GmbH, priority 2023, published 2024)
# How the values were obtained:
# HCT116-mock-RNA-KO = experiment: Cell killing in HCT116 isogenic pair (Cell Titer-Glo viability), mock knock-out cells with MTAP wildtype genotype; assay type: cell-based, human; settings: Homo sapiens, HCT-116, 144 h, 6 days incubation, 0-10 μM
# Source text: (§1) HCT116 cell line (ATCC, CCL-247) was isolated from the colon of an adult with colon cancer. It has a mutation in codon 13 of the ras proto-oncogene and can be used as a positive control for PCR assays of mutation in this codon. HCT116-MTAP-KO was knocked-out-MTAP-gene based HCT116, and a single clone was passed for this assay. HCT116-mock-RNA-KO was knocked-out-mock-gene based HCT116 with MTAP wildtype genotype. The base medium for HCT116 isogenic pair is RPMI 1640, HEPES (Gibco, 22400105). To make the complete growth medium, added the following components to the base medium: fetal bovine serum to a final concentration of 10% (Gibco, 10099-141C). The cell line was grown in a humidified 5% CO2 atmosphere at 37° C. and regularly tested for the presence of mycoplasma with MpcoAlert™ PLUS Mycoplasma Detection Kit (Lonzak LT07-710).
# (§2) • Seeded HCT116-mock-RNA-KO (4E2/well) or HCT116-MTAP-KO (4E2/well) cells into a 96-well plate (Greiner: 655090), 100 μL/well. • Incubated at 37° C., 5% CO2, overnight. • Added 50 μL fresh growth medium containing serial dilution of test compounds for a final test compound concentration of 0-10 μM to each well. • Incubated at 37° C., 5% CO2, 6 days. • The cell viability was detected by Cell Titer-Glo (Promega, G7573). Added 70 μL of CeliTiter-Glo® reagent in each well. • Incubated at room temperature for 10 minutes to stabilize luminescent signal. • Analyzed with Microplate Reader (TECAN, SPARK) and fit IC50 using Prism® 9.
# HCT116-MTAP-KO = experiment: Cell killing in HCT116 isogenic pair (Cell Titer-Glo viability), MTAP knock-out cells; assay type: cell-based, human; settings: Homo sapiens, HCT-116, 144 h, 6 days incubation, 0-10 μM, * = more than 50% viability inhibition at tested concentration without a full curve
# Source text: as §1, §2
SMILES,IC50 (HCT116-mock-RNA-KO) [nM],IC50 (HCT116-MTAP-KO) [nM]
"COC[C@@H](C)N(Cc1ccc(Br)cn1)C(=O)c1cc2nc(N)c3c(c2[nH]1)COC3 [Example 45, (R)-5-amino-N-((5-bromopyridin-2-yl)methyl)-N-(1-methoxypropan-2-yl)-6,8-dihydro-1H-furo[3,4-d]pyrrolo[3,2-b]pyridine-2-carboxamide]",856,7.2
"COC[C@@H](C)N(Cc1c(F)cc(C#N)cc1F)C(=O)c1cc2nc(N)c3c(c2[nH]1)COC3 [Example 46, (R)-5-amino-N-(4-cyano-2,6-difluorobenzyl)-N-(1-methoxypropan-2-yl)-6,8-dihydro-1H-furo[3,4-d]pyrrolo[3,2-b]pyridine-2-carboxamide]",854,9
"Nc1nc2cc(C(=O)N(Cc3ncccc3F)Cc3c(F)cc(F)cc3F)[nH]c2c2c1COC2 [Example 47, 5-amino-N-((3-fluoropyridin-2-yl)methyl)-N-(2,4,6-trifluorobenzyl)-6,8-dihydro-1H-furo[3,4-d]pyrrolo[3,2-b]pyridine-2-carboxamide]",605,4.4
"C[C@H](c1ncccn1)N(Cc1ccc(C2CC2)cn1)C(=O)c1cc2nc(N)c3c(c2[nH]1)COC3 [Example 48, (R)-5-amino-N-((5-cyclopropylpyridin-2-yl)methyl)-N-(1-(pyrimidin-2-yl)ethyl)-6,8-dihydro-1H-furo[3,4-d]pyrrolo[3,2-b]pyridine-2-carboxamide]",625,8.4
"COC[C@@H](C)N(Cc1ncc(Br)cc1F)C(=O)c1cc2nc(N)c3c(c2[nH]1)COC3 [Example 49, (R)-5-amino-N-((5-bromo-3-fluoropyridin-2-yl)methyl)-N-(1-methoxypropan-2-yl)-6,8-dihydro-1H-furo[3,4-d]pyrrolo[3,2-b]pyridine-2-carboxamide]",835,6.1
"C[C@H]1OCc2c1c(N)nc1cc(C(=O)N(Cc3ccc(Br)cn3)Cc3ncccc3F)[nH]c21 [Example 50, (R)-5-amino-N-((5-bromopyridin-2-yl)methyl)-N-((3-fluoropyridin-2-yl)methyl)-6-methyl-6,8-dihydro-1H-furo[3,4-d]pyrrolo[3,2-b]pyridine-2-carboxamide]",1360,8.6
"C[C@H](c1ncccn1)N(Cc1ccc(I)cn1)C(=O)c1cc2nc(N)c3c(c2[nH]1)COC3 [Example 51, (R)-5-amino-N-((5-iodopyridin-2-yl)methyl)-N-(1-(pyrimidin-2-yl)ethyl)-6,8-dihydro-1H-furo[3,4-d]pyrrolo[3,2-b]pyridine-2-carboxamide]",558,7.8
"C[C@H](c1ncccn1)N(Cc1ncc(C2CC2)cc1F)C(=O)c1cc2nc(N)c3c(c2[nH]1)COC3 [Example 52, (R)-5-amino-N-((5-cyclopropyl-3-fluoropyridin-2-yl)methyl)-N-(1-(pyrimidin-2-yl)ethyl)-6,8-dihydro-1H-furo[3,4-d]pyrrolo[3,2-b]pyridine-2-carboxamide]",419,4.6
"COC[C@@H](C)N(Cc1cnc(C2CC2)cn1)C(=O)c1cc2nc(N)c3c(c2[nH]1)COC3 [Example 53, (R)-5-amino-N-((5-cyclopropylpyrazin-2-yl)methyl)-N-(1-methoxypropan-2-yl)-6,8-dihydro-1H-furo[3,4-d]pyrrolo[3,2-b]pyridine-2-carboxamide]",> 10000,34
"CCN(C(=O)c1cc2nc(N)c3c(c2[nH]1)COC3)[C@@H]1COCc2cc(C(F)(F)F)ccc21 [Example 54, (S)-5-amino-N-ethyl-N-(7-(trifluoromethyl)isochroman-4-yl)-6,8-dihydro-1H-furo[3,4-d]pyrrolo[3,2-b]pyridine-2-carboxamide]",1360,12
"CCN(C(=O)c1cc2nc(N)c3c(c2[nH]1)COC3)[C@H]1COCc2cc(C(F)(F)F)ccc21 [Example 55, (R)-5-amino-N-ethyl-N-(7-(trifluoromethyl)isochroman-4-yl)-6,8-dihydro-1H-furo[3,4-d]pyrrolo[3,2-b]pyridine-2-carboxamide]",> 10000,1640
"COC[C@@H](C)N(Cc1ncc(C2CC2)cc1F)C(=O)c1cc2nc(N)c3c(c2[nH]1)COC3 [Example 56, (R)-5-amino-N-((5-cyclopropyl-3-fluoropyridin-2-yl)methyl)-N-(1-methoxypropan-2-yl)-6,8-dihydro-1H-furo[3,4-d]pyrrolo[3,2-b]pyridine-2-carboxamide]",146,5
"C[C@H]1OC[C@H](N(C)C(=O)c2cc3nc(N)c4c(c3[nH]2)COC4)c2ccc(C(F)(F)F)cc21 [Example 57, 5-amino-N-methyl-N-((1R,4R)-1-methyl-7-(trifluoromethyl)isochroman-4-yl)-6,8-dihydro-1H-furo[3,4-d]pyrrolo[3,2-b]pyridine-2-carboxamide]",> 10000,958
"C[C@@H]1OC[C@H](N(C)C(=O)c2cc3nc(N)c4c(c3[nH]2)COC4)c2ccc(C(F)(F)F)cc21 [Example 58, 5-amino-N-methyl-N-((1S,4R)-1-methyl-7-(trifluoromethyl)isochroman-4-yl)-6,8-dihydro-1H-furo[3,4-d]pyrrolo[3,2-b]pyridine-2-carboxamide]",> 10000,1080
"C[C@@H]1OC[C@@H](N(C)C(=O)c2cc3nc(N)c4c(c3[nH]2)COC4)c2ccc(C(F)(F)F)cc21 [Example 59, 5-amino-N-methyl-N-((1S,4S)-1-methyl-7-(trifluoromethyl)isochroman-4-yl)-6,8-dihydro-1H-furo[3,4-d]pyrrolo[3,2-b]pyridine-2-carboxamide]",> 10000,110
"C[C@H]1OC[C@@H](N(C)C(=O)c2cc3nc(N)c4c(c3[nH]2)COC4)c2ccc(C(F)(F)F)cc21 [Example 60, 5-amino-N-methyl-N-((1R,4S)-1-methyl-7-(trifluoromethyl)isochroman-4-yl)-6,8-dihydro-1H-furo[3,4-d]pyrrolo[3,2-b]pyridine-2-carboxamide]",857,7.3
"C[C@@H](c1cnccn1)N(Cc1ncc(Br)cc1F)C(=O)c1cc2nc(N)c3c(c2[nH]1)COC3 [Example 61, (S)-5-amino-N-((5-bromo-3-fluoropyridin-2-yl)methyl)-N-(1-(pyrazin-2-yl)ethyl)-6,8-dihydro-1H-furo[3,4-d]pyrrolo[3,2-b]pyridine-2-carboxamide]",> 10000,808
"C[C@H](c1cnccn1)N(Cc1ncc(Br)cc1F)C(=O)c1cc2nc(N)c3c(c2[nH]1)COC3 [Example 62, (R)-5-amino-N-((5-bromo-3-fluoropyridin-2-yl)methyl)-N-(1-(pyrazin-2-yl)ethyl)-6,8-dihydro-1H-furo[3,4-d]pyrrolo[3,2-b]pyridine-2-carboxamide]",2080,17
"CN(C(=O)c1cc2nc(N)c3c(c2[nH]1)COC3)[C@@H]1COCc2cc(Br)ccc21 [Example 63, (S)-5-amino-N-(7-bromoisochroman-4-yl)-N-methyl-6,8-dihydro-1H-furo[3,4-d]pyrrolo[3,2-b]pyridine-2-carboxamide]",2500,22
"CN(C(=O)c1cc2nc(N)c3c(c2[nH]1)COC3)[C@H]1COCc2cc(Br)ccc21 [Example 64, (R)-5-amino-N-(7-bromoisochroman-4-yl)-N-methyl-6,8-dihydro-1H-furo[3,4-d]pyrrolo[3,2-b]pyridine-2-carboxamide]",> 10000,362
"Nc1nc2cc(C(=O)N(Cc3ncc(C4CC4)cc3F)C3CCCC3)[nH]c2c2c1COC2 [Example 65, 5-amino-N-cyclopentyl-N-((5-cyclopropyl-3-fluoropyridin-2-yl)methyl)-6,8-dihydro-1H-furo[3,4-d]pyrrolo[3,2-b]pyridine-2-carboxamide]",2460,17
"CC(C)N(Cc1ncc(C2CC2)cc1F)C(=O)c1cc2nc(N)c3c(c2[nH]1)COC3 [Example 66, 5-amino-N-((5-cyclopropyl-3-fluoropyridin-2-yl)methyl)-N-isopropyl-6,8-dihydro-1H-furo[3,4-d]pyrrolo[3,2-b]pyridine-2-carboxamide]",2520,20
"CC[C@@H](C)N(Cc1ncc(C2CC2)cc1F)C(=O)c1cc2nc(N)c3c(c2[nH]1)COC3 [Example 67, (R)-5-amino-N-(sec-butyl)-N-((5-cyclopropyl-3-fluoropyridin-2-yl)methyl)-6,8-dihydro-1H-furo[3,4-d]pyrrolo[3,2-b]pyridine-2-carboxamide]",453,4.2
"C[C@H]1OCc2c1c(N)nc1cc(C(=O)N(C)[C@@H]3COCc4cc(C(F)(F)F)ccc43)[nH]c21 [Example 68, (R)-5-amino-N,6-dimethyl-N—((S)-7-(trifluoromethyl)isochroman-4-yl)-6,8-dihydro-1H-furo[3,4-d]pyrrolo[3,2-b]pyridine-2-carboxamide]",1690,9
